# Target: T1, 5-HT1A receptor (5-HT1AR) (Homo sapiens, UniProt P08908)
# T1 sequence (P08908 1-422): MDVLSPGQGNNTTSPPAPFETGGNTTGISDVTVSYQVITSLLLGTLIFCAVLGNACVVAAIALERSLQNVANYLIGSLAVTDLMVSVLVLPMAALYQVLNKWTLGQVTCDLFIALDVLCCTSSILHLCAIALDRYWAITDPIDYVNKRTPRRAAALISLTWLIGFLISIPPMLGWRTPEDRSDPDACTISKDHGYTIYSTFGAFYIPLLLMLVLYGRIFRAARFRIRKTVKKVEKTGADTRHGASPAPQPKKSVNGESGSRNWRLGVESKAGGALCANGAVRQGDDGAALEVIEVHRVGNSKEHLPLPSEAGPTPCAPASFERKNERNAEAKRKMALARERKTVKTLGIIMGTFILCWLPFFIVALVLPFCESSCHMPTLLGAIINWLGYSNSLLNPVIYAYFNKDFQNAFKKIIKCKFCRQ
# Assay: radioligand displacement of [3H]-8-OH-DPAT
# Format: binding
row,SMILES,Ki
1,CCCN(CCCCCCNS(=O)(=O)c1cccc2c(N(C)C)cccc12)C1CCc2cccc(O)c2C1 (centres unmarked) [5a],1.8 nM
2,CCCN(CCCCCCNc1ccc([N+](=O)[O-])c2nonc12)C1CCc2cccc(O)c2C1 (centres unmarked) [5b],10 nM

# Reference: PMC9127068 (ChemMedChem, 2022)
